Source: patent US20260262643A1, “HERBICIDAL BENZOXAZINES” (FMC CORPORATION, priority 2022, published 2026)

Columns and labels:
ryegrass, Italian [1] = experiment: Test A preemergence; format: in vivo, Lolium multiflorum
Outline: (§1)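 Greenhouse pot test, 10 days. Compound (non-phytotoxic solvent, surfactant) sprayed on soil at seeding or on seedlings at one- to two-leaf stage. Visual injury rated 0–100 against untreated plants.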

oat, wild [2] = experiment: Test A preemergence; format: in vivo, Avena fatua
Outline: as §1

foxtail, giant [3] = experiment: Test A postemergence; format: in vivo, Setaria faberi; conditions: postemergence, 10 days; for Plant response rating, Foxtail, Giant: visual injury, 0 to 100 scale (0 no effect, 100 complete control)
Outline: as §1

ragweed [4] = experiment: Test A postemergence; format: in vivo, Ambrosia artemisiifolia; conditions: postemergence, 10 days; for Plant response rating, Ragweed: 500 g ai/ha, visual injury, 0 to 100 scale (0 no effect, 100 complete control)
Outline: as §1

oat, wild [5] = experiment: Test A postemergence; format: in vivo, Avena fatua; conditions: postemergence, 10 days; for Plant response rating, Oat, Wild: 500 g ai/ha, visual injury, 0 to 100 scale (0 no effect, 100 complete control)
Outline: as §1

corn [6] = experiment: Test A preemergence; format: in vivo, Zea mays
Outline: as §1

blackgrass [7] = experiment: Test A postemergence; format: in vivo, Alopecurus myosuroides
Outline: as §1

ducksalad = experiment: Test B flooded paddy test; format: in vivo, Heteranthera limosa; conditions: 250 g ai/ha, Flood, 13 days, 0 to 100 scale (0 no effect, 100 complete control)
Outline: (§2)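 Visual scores from 0 (no effect) to 100 (complete kill) were assigned 13 days after treatment by comparison with controls. Seedlings had been treated at two leaves by adding compound to floodwater standing 3 cm deep, kept at that level in the greenhouse.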

corn [8] = experiment: Test A postemergence; format: in vivo, Zea mays; conditions: postemergence, 10 days; for Plant response rating, Corn: visual injury, 0 to 100 scale (0 no effect, 100 complete control)
Outline: as §1

rice = experiment: Test B flooded paddy test; format: in vivo, Oryza sativa; conditions: 250 g ai/ha, Flood, 13 days, 0 to 100 scale (0 no effect, 100 complete control)
Outline: as §2

kochia [9] = experiment: Test A preemergence; format: in vivo, Bassia scoparia
Outline: as §1

ragweed [10] = experiment: Test A preemergence; format: in vivo, Ambrosia artemisiifolia
Outline: as §1

wheat [11] = experiment: Test A preemergence; format: in vivo, Triticum aestivum
Outline: as §1

foxtail, giant [12] = experiment: Test A preemergence; format: in vivo, Setaria faberi
Outline: as §1

soybean [13] = experiment: Test A preemergence; format: in vivo, Glycine max
Outline: as §1

ryegrass, Italian [14] = experiment: Test A postemergence; format: in vivo, Lolium multiflorum; conditions: postemergence, 10 days; for Plant response rating, Ryegrass, Italian: 500 g ai/ha, visual injury, 0 to 100 scale (0 no effect, 100 complete control)
Outline: as §1

pigweed, palmer [15] = experiment: Test A preemergence; format: in vivo, Amaranthus palmeri
Outline: as §1

barnyardgrass = experiment: Test B flooded paddy test; format: in vivo, Echinochloa crus-galli; conditions: 250 g ai/ha, Flood, 13 days, 0 to 100 scale (0 no effect, 100 complete control)
Outline: as §2

blackgrass [16] = experiment: Test A preemergence; format: in vivo, Alopecurus myosuroides
Outline: as §1

horseweed = experiment: Test A postemergence; format: in vivo, Erigeron canadensis; conditions: postemergence, 10 days; for Plant response rating, Horseweed: visual injury, 0 to 100 scale (0 no effect, 100 complete control)
Outline: as §1

wheat [17] = experiment: Test A postemergence; format: in vivo, Triticum aestivum; conditions: postemergence, 10 days; for Plant response rating, Wheat: 500 g ai/ha, visual injury, 0 to 100 scale (0 no effect, 100 complete control)
Outline: as §1

goosegrass [18] = experiment: Test A postemergence; format: in vivo, Eleusine indica; conditions: postemergence, 10 days; for Plant response rating, Goosegrass: visual injury, 0 to 100 scale (0 no effect, 100 complete control)
Outline: as §1

pigweed, palmer [19] = experiment: Test A postemergence; format: in vivo, Amaranthus palmeri; conditions: postemergence, 10 days; for Plant response rating, Pigweed, Palmer: 500 g ai/ha, visual injury, 0 to 100 scale (0 no effect, 100 complete control)
Outline: as §1

soybean [20] = experiment: Test A postemergence; format: in vivo, Glycine max; conditions: postemergence, 10 days; for Plant response rating, Soybean: 500 g ai/ha, visual injury, 0 to 100 scale (0 no effect, 100 complete control)
Outline: as §1

goosegrass [21] = experiment: Test A preemergence; format: in vivo, Eleusine indica
Outline: as §1

sedge, umbrella = experiment: Test B flooded paddy test; format: in vivo, Cyperus difformis; conditions: 250 g ai/ha, Flood, 13 days, 0 to 100 scale (0 no effect, 100 complete control)
Outline: as §2

kochia [22] = experiment: Test A postemergence; format: in vivo, Bassia scoparia; conditions: postemergence, 10 days; for Plant response rating, Kochia: visual injury, 0 to 100 scale (0 no effect, 100 complete control)
Outline: as §1

[23] = 125 g ai/ha, visual injury after 10 days, 0 to 100 scale, 0 is no effect, 100 is complete control
[24] = 500 g ai/ha, 0 to 100 scale (0 no effect, 100 complete control), 10 days
[25] = 125 g ai/ha, 0 to 100 scale, 0 no effect, 100 complete control

CCc1ccc(-n2cncn2)cc1C(=O)N1C[C@H](C)Oc2c(Cl)cccc21 [Compound 79]
50: Plant response rating, Ragweed (ragweed [4]) | Plant response rating, Wheat (wheat [11]; [24]) | Plant response rating, Blackgrass (blackgrass [16]; [23]) | Plant response rating, Wheat (wheat [17])
100: Plant response rating, Ryegrass, Italian (ryegrass, Italian [1]; [24]) | Plant response rating, Foxtail, Giant (foxtail, giant [12]; [23]) | Plant response rating, Foxtail, Giant (foxtail, giant [12]; [24]) | Plant response rating, Ryegrass, Italian (ryegrass, Italian [14]) | Plant response rating, Pigweed, Palmer (pigweed, palmer [15]; [24]) | Plant response rating, Soybean (soybean [20]) | Plant response rating, Goosegrass (goosegrass [21]; [23]) | Plant response rating, Goosegrass (goosegrass [21]; [24])
60: Plant response rating, Ryegrass, Italian (ryegrass, Italian [1]; [23]) | Plant response rating, Soybean (soybean [13]; [23]) | Plant response rating, Kochia (kochia [22]; 500 g ai/ha)
40: Plant response rating, Corn (corn [6]; [24]) | Plant response rating, Corn (corn [8]; 125 g ai/ha) | Plant response rating, Kochia (kochia [9]; [24]) | Plant response rating, Pigweed, Palmer (pigweed, palmer [15]; [23])
90: Plant response rating, Oat, Wild (oat, wild [2]; [23]) | Plant response rating, Foxtail, Giant (foxtail, giant [3]; 125 g ai/ha) | Plant response rating, Foxtail, Giant (foxtail, giant [3]; 500 g ai/ha) | Plant response rating, Soybean (soybean [13]; [24]) | Plant response rating, Pigweed, Palmer (pigweed, palmer [19])
45: Plant response rating, Ducksalad (ducksalad)
98: Plant response rating, Sedge, Umbrella (sedge, umbrella)
70: Plant response rating, Blackgrass (blackgrass [16]; [24])
80: Plant response rating, Oat, Wild (oat, wild [2]; [24]) | Plant response rating, Oat, Wild (oat, wild [5]) | Plant response rating, Blackgrass (blackgrass [7]; 125 g ai/ha, postemergence, 10 days, visual injury, 0 to 100 scale (0 no effect, 100 complete control)) | Plant response rating, Blackgrass (blackgrass [7]; 500 g ai/ha, Postemergence, 0 to 100 scale) | Plant response rating, Corn (corn [8]; 500 g ai/ha) | Plant response rating, Goosegrass (goosegrass [18]; 500 g ai/ha)
20: Plant response rating, Corn (corn [6]; [23]) | Plant response rating, Kochia (kochia [9]; [23]) | Plant response rating, Horseweed (horseweed; 500 g ai/ha) | Plant response rating, Goosegrass (goosegrass [18]; 125 g ai/ha)
30: Plant response rating, Ragweed (ragweed [10]; [24]) | Plant response rating, Kochia (kochia [22]; 125 g ai/ha)
0: Plant response rating, Rice (rice) | Plant response rating, Ragweed (ragweed [10]; [23]) | Plant response rating, Barnyardgrass (barnyardgrass) | Plant response rating, Horseweed (horseweed; 125 g ai/ha)
10: Plant response rating, Wheat (wheat [11]; [23])

C[C@H]1CN(C(=O)c2cc(Cl)cc(-n3cncn3)c2)c2cccc(Cl)c2O1 [Compound 81]
0: Plant response rating, Corn (corn [6]; [23]) | Plant response rating, Corn (corn [6]; [24]) | Blackgrass plant response rating (blackgrass [7]; 125 g ai/ha, postemergence, 10 days, 0 to 100 scale, 0 no effect, 100 complete control) | Plant response rating, Ducksalad (ducksalad) | Corn plant response rating (corn [8]; [25]) | Plant response rating, Rice (rice) | Plant response rating, Kochia (kochia [9]; [23]) | Plant response rating, Ragweed (ragweed [10]; [23]) | Plant response rating, Ragweed (ragweed [10]; [24]) | Plant response rating, Soybean (soybean [13]; [23]) | Plant response rating, Soybean (soybean [13]; [24]) | Plant response rating, Barnyardgrass (barnyardgrass) | Horseweed plant response rating (horseweed; [25]) | Plant response rating, Horseweed (horseweed; 500 g ai/ha) | Plant response rating, Sedge, Umbrella (sedge, umbrella)
90: Plant response rating, Foxtail, Giant (foxtail, giant [3]; 500 g ai/ha) | Plant response rating, Foxtail, Giant (foxtail, giant [12]; [24]) | Plant response rating, Pigweed, Palmer (pigweed, palmer [19]) | Plant response rating, Goosegrass (goosegrass [21]; [24]) | Plant response rating, Kochia (kochia [22]; 500 g ai/ha)
50: Plant response rating, Ryegrass, Italian (ryegrass, Italian [1]; [23]) | Plant response rating, Oat, Wild (oat, wild [2]; [23]) | Plant response rating, Corn (corn [8]; 500 g ai/ha) | Kochia plant response rating (kochia [22]; [25])
60: Plant response rating, Blackgrass (blackgrass [7]; 500 g ai/ha, postemergence, 10 days, visual injury, 0 to 100 scale (0 no effect, 100 complete control)) | Plant response rating, Blackgrass (blackgrass [16]; [24]) | Pigweed, Palmer plant response rating (pigweed, palmer [19]; [25])
10: Oat, Wild plant response rating (oat, wild [5]; [25]) | Plant response rating, Wheat (wheat [11]; [23]) | Plant response rating, Wheat (wheat [11]; [24]) | Wheat plant response rating (wheat [17]; [25]) | Goosegrass plant response rating (goosegrass [18]; [25])
20: Foxtail, Giant plant response rating (foxtail, giant [3]; [25]) | Ragweed plant response rating (ragweed [4]; [25]) | Plant response rating, Ragweed (ragweed [4]) | Plant response rating, Oat, Wild (oat, wild [5]) | Plant response rating, Foxtail, Giant (foxtail, giant [12]; [23]) | Plant response rating, Wheat (wheat [17])
100: Plant response rating, Ryegrass, Italian (ryegrass, Italian [14]) | Soybean plant response rating (soybean [20]; [25]) | Plant response rating, Soybean (soybean [20])
80: Plant response rating, Ryegrass, Italian (ryegrass, Italian [1]; [24]) | Plant response rating, Oat, Wild (oat, wild [2]; [24]) | Plant response rating, Pigweed, Palmer (pigweed, palmer [15]; [24])
30: Plant response rating, Kochia (kochia [9]; [24]) | Ryegrass, Italian plant response rating (ryegrass, Italian [14]; [25]) | Plant response rating, Pigweed, Palmer (pigweed, palmer [15]; [23]) | Plant response rating, Blackgrass (blackgrass [16]; [23]) | Plant response rating, Goosegrass (goosegrass [18]; 500 g ai/ha)
70: Plant response rating, Goosegrass (goosegrass [21]; [23])
